Where a name gives a salt, the structure may show the parent alone.

The values below come from patent publication US7268164B2, “Anti-epileptogenic agents” (Queens University at Kingston, priority 1997, dated 2007).

One data set in a line: solubility in saline. The format is physicochemical.
In data set [1] the test system is spontaneous recurrent seizures. In words: spontaneous recurrent seizures (SRS) model of epilepsy. The format is in vivo, Sprague-Dawley rat. Particulars: for effective in decreasing seizures by at least 50%: administered at Time 1 (Day 1, after status epilepticus, before onset of SRS); for effective in decreasing seizures by at least 50% / effective in decreasing seizures (seizure frequency) by at least 50%: 20 mg/kg/day i.v. for 10 days; for effective in decreasing seizures (seizure frequency) by at least 50%: administered at Time 2 (Day 30, established SRS). The protocol:
The “spontaneous recurrent seizures” (SRS) model of epilepsy was used to evaluate candidate compounds in a model for Phase 1 epileptogenesis (see, e.g., Mello, E. et al., Epilepsia (1993) 34:985; Cavalheiro, J. et al., Epilepsia (1991) 32:778). In the SRS model, an adult male Sprague-Dawley rat (c. 260 g) is given pilocarpine by injection (380 mg/kg i.p.). Within 25 minutes, the animal enters status epilepticus, which typically lasts for 15-20 hours (although about 10% of animals die at this stage). The rat is allowed to spontaneously recover and is given food and water ad lib. and maintained on a 12 hour/12 hour light/dusk cycle. Rats are usually studied in groups of four. Beginning on about day 13-15, the rats develop spontaneous recurrent seizures, which occur at the rate of about 4-5 per week. The rats are videotaped 24 hours per day, and the videotapes are reviewed for behavioral seizures (including head nodding, forelimb clonus, and rearing), which are counted. The animals are watched for three months, permitting evaluation of a sufficient number of seizures. […] Administration of the candidate compound at Time 1 permits evaluation for anti-epileptogenic properties (ability to prevent the onset of seizures); administration of compounds at Time 2 permits evaluation of drugs as anti-ictogenics with the ability to suppress established seizures.
As a reference, the standard anticonvulsant phenytoin was administered (20 mg/kg/day i.v. for 10 day) at either Time 1 or Time 2.

In the next data set the test system is mice. Description: testing of dioxapiperazine compounds in mice (Example 7). Further details: key to Activity: 300 mg/kg / Activity: 100 mg/kg / Activity: 30 mg/kg: 0 (inactive); 1: Activity on scale of 0 (inactive) to 4.; 2: Activity on scale of 0 (inactive) to 4.; 3: Activity on scale of 0 (inactive) to 4.; Activity on scale of 0 (inactive) to 4. The conditions noted are these: for Activity: 100 mg/kg / Activity: 300 mg/kg / Activity: 30 mg/kg: mice, 30 minutes and four hours after administration; for anti-convulsive activity: animal model system of Table 4, in words. The format is in vivo. As to the method: (§1) Selected compounds were dissolved in 0.9% NaCl or suspended in a mixture of 30% polyethylene glycol 400 and 70% water, and tested in an animal model. Briefly, the compounds were administered intraperitoneally or or orally to carsworth Farms #1 mice (in a volume of 0.01 ml/g of body weight) or Sprague-Dawley rats (in a volume of 0.004 ml/g body weight). Times on peak effect and peak neurologic deficit were determined before the anticonvulsant tests were administered.
(§2) The maximal electroshock seizure test (MES), corneal electrodes primed with a drop of electrolyte solution (0.9% NaCl) were applied to the eyes of the animal and an electrical stimulus (50 mA for mice, 150 mA for rats; 60 Hz) was delivered for 0.2 second at the time of the peak effect of the test compound. The animals were restrained by hand and released at the moment of stimulation in order to permit observation of the seizure.
(§3) In the subcutaneous pentylenetetrazol threshold test (scMet), the convulsant dose (CD97) of pentylenetetrazol (85 mg/kg in rats) was injected at the time of peak effect of the test compound. The animals were isolated and observed for 30 minutes to see whether seizures occurred.
(§4) Acute anti-convulsant drug-induced toxicity in lab animals is usually characterized by some type of neurologic abnormality. In mice, these abnormalities can be detected by the rotorod ataxia test, which is somewhat less useful in rats. In the rotorod ataxia test, neurologic deficit is indicated by the inability of the animal to maintain equilibrium for at least one minute on a knurled rod rotating at 6 rpm. […] Inability to return the leg to normal position indicates a neurologi deficit.
Testing of the compounds was performed in 12 mice at doses of 30, 100, 300 mg/kg (4 mice each) 30 minutes and four hours after the test compounds was administered.

In data set [2] the test system is MES-induced seizure; pentylenetetrazol induced seizure. Description: biological activity per Example 6 (MES, scMet anticonvulsant tests). The format is in vivo, carsworth Farms #1 mice or Sprague-Dawley rats. The conditions noted are these: tested per Example 6. The protocol: as §1, §2, §3, §4

Turning to `Cc1ccc(C(CC(=O)O)NCl)cc1` (stereo not shown), the solubility in “solubility in saline” is on record as 7.2-7.1 (M, 4H)4.17-4.09(t, 1H, 7.4 Hz)2.39-2.46 (m, 2H)solubility: ~10 mg/mlsaline.
The same measure, in the same setting: to `O=C(O)CC(NCl)c1ccc(Cl)cc1` (stereo not shown) belongs 7.3-7.17 (s, 4H)4.07-4.17 (t, 7H, 7.2 Hz)2.45-2.55 (dt, 4.5 Hz, 3.5Hz)solubility: ~10 mg/mlsaline.
The same measure, in the same setting: the result for `NC(CC(=O)O)c1ccccc1` (stereo not drawn) [Compound B5P91, β-Phenyl-β-alanine] reads 7.35-7.2 (s, 5H)4.45 (t, 1H, 7.3 Hz)2.8-2.1 (m, 2H)solubility: ~10 mg/mlsaline.
With `CC(C)(C)C1CCC(C(CN)C(=O)O)CC1.Cl` (stereo not drawn) [Compound B5P127, α-(4-tert-Butylcyclohexyl)-β-alanine Hydrochloride Salt], in data set [1], the “effective in decreasing seizures by at least 50%” value was found to be 75% and the “effective in decreasing seizures (seizure frequency) by at least 50%” value turned out to be 50%.
For `CC1NC(=O)C(c2ccc(O)cc2)NC1=O` [c/D-(p-OH)-Peg-L-Ala], in the data set on mice, the “Activity: 100 mg/kg” value turned out to be 0 and the “Activity: 300 mg/kg” value was 0.
`NCCCCC1NC(=O)C(c2ccc(O)cc2)NC1=O` [c/D-(p-OH)-Peg-L-Lys]: in the data set with mice, the “Activity: 100 mg/kg” value was 0 and the “Activity: 300 mg/kg” value turned out to be 0.
As to `NCCCCC1NC(=O)C(c2ccccc2)NC1=O` [c/D-Peg-D-Lys], in the data set with mice, the “Activity: 100 mg/kg” value is listed as 0 and the “Activity: 300 mg/kg” value was determined as 0.
Turning to `CSCCC1NC(=O)C(c2ccccc2)NC1=O` [c/D-Peg-D-Met], in the data set on mice, the “Activity: 100 mg/kg” value was found to be 0 and the “Activity: 300 mg/kg” value is 0.
In the case of `NCCC[C@H]1NC(=O)[C@@H](c2ccccc2)NC1=O` [c/D-Peg-D-Orn], in the data set on mice, the “Activity: 100 mg/kg” value is on record as 0 and the “Activity: 300 mg/kg” value was found to be 0.
In the case of `O=C1CNC(=O)[C@@H](c2ccccc2)N1` [c/D-Peg-Gly], in the data set on mice, the “Activity: 30 mg/kg” value came out at 0, the “Activity: 100 mg/kg” value was determined as 1 and the “Activity: 300 mg/kg” value is 2.
Regarding `C[C@@H]1NC(=O)[C@@H](c2ccccc2)NC1=O` [c/D-Peg-L-Ala, Cyclo-D-phenylglycine-L-alanine], in the data set with mice, the anti-convulsive activity entry is “strong anti-convulsive activity”, the “Activity: 30 mg/kg” value was 2, the “Activity: 100 mg/kg” value is on record as 3 and the “Activity: 300 mg/kg” value was 4.
In the case of `N=C(N)NCCC[C@@H]1NC(=O)[C@@H](c2ccccc2)NC1=O` [c/D-Peg-L-Arg], in the data set with mice, the “Activity: 100 mg/kg” value amounted to 0 and the “Activity: 300 mg/kg” value came to 0.
For the compound `NCCCCC1NC(=O)C(c2ccccc2)NC1=O` [c/D-Peg-L-Lys], in the data set with mice, the “Activity: 100 mg/kg” value is on record as 0 and the “Activity: 300 mg/kg” value is on record as 1.
For `CSCCC1NC(=O)C(c2ccccc2)NC1=O` [c/D-Peg-L-Met], in that order: 0 and 1.
For `NCCCC1NC(=O)C(c2ccccc2)NC1=O` [c/D-Peg-L-Ornithine (Orn)], in that order: 0 and 0.
For `NCCC1NC(=O)C(c2ccccc2)NC1=O` [c/D-Peg-L-diaminobutyric acid], in that order: 0 and 0.
Turning to `C[C@@H]1NC(=O)[C@H](c2ccccc2)NC1=O` [c/L-Peg-L-Ala], in the data set with mice, the “Activity: 100 mg/kg” value was 0 and the “Activity: 300 mg/kg” value is given as 0.
With `CC(C)CC1NC(=O)C(C)NC1=O` [c/L-alanine-D-leucine], in the data set with mice, the anti-convulsive activity result is on record as “active”.
As for `O=C1NC(=O)C(c2ccccc2)(c2ccccc2)N1` [phenytoin], the “preventing the onset of seizures” value in data set [1] (administered at Time 1, 20 mg/kg/day i.v. for 10 day) is “ineffective”. Moreover, the “effective in decreasing seizures (seizure frequency) by at least 50%” value in data set [1] was determined as 75%.
For the compound `COc1cc(C)c(C(N)CC(=O)O)cc1C` (stereo not drawn) [β-2,5-dimethyl-4-methoxyphenyl-β-alanine], the biological activity result in data set [2] is listed as “at least weak activity”.
Take `NC(CC(=O)O)c1cccc(C(F)(F)F)c1F` (stereo not drawn) [β-2-fluoro-3-(trifluoromethyl)phenyl-β-alanine]: the biological activity result in data set [2] is recorded as “moderate”.
Still for that read-out and setting: the result for `COc1cccc(C(N)CC(=O)O)c1O` (stereo not drawn) [β-2-hydroxy-3-methoxyphenyl-β-alanine] reads “at least weak activity”; that for `COc1ccc(C(N)CC(=O)O)cc1C` (stereo not drawn) [β-3-methyl-4-methoxyphenyl-β-alanine], “slight”.
As to `NCCC(=O)O` [β-alanine], in data set [1], the “effective in decreasing seizures by at least 50%” value came to 75% and the “effective in decreasing seizures (seizure frequency) by at least 50%” value is given as 50%.
For `NC(CC(=O)O)c1ccc(OC(F)(F)F)cc1` (stereo not drawn) [β-p-(trifluoromethoxy)phenyl-β-alanine], the biological activity entry in data set [2] was “at least weak activity”.
Turning to `Cc1ccc(C(N)CC(=O)O)cc1` (stereo not drawn) [β-p-methylphenyl-β-alanine hydrochloride], the biological activity result in data set [2] was “at least weak activity”.
With “cyclo-D-phenylglycyl-(S-Me)-L-cysteine [c/D-Peg-L-(S-methyl)-L-cysteine]”, in the data set with mice, the anti-convulsive activity entry is “strong anti-convulsive activity”, the “Activity: 30 mg/kg” value was 2, the “Activity: 100 mg/kg” value stood at 3 and the “Activity: 300 mg/kg” value turned out to be 4.
